The record followed here is ChEMBL document CHEMBL1201862, “PubChem BioAssay data set” (2004).

As a reminder, the GI50 is the concentration giving 50% growth inhibition.

Each structure is given as a SMILES string.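 Results reflect a 48-hour exposure of cells in 96-well plates to compound at five concentrations. GI50: concentration for 50% inhibition of growth.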 Activity calls are given as the source filed them. Rule as the data show it: active = GI50 up to about 1.1 µM and inactive = higher.

Assay in all cases: DTP human tumour cell line panel, 48 h
Test [1] concerns PC-3.
In test [2] the test system is UACC-62.
The subject of test [3] is HOP-92.
Test [4] has as its system UO-31.
For test [5], the system named is IGROV-1.
In test [6] the test system is RXF 393.
Test [7] deals with SF-268.
The subject of test [8] is M14.
Test [9] has as its system A549.
For test [10], the system named is HCT-116.
Test [11] deals with NCI-H522.
The subject of test [12] is SNB-75.
The test system of test [13] is OVCAR-3.
The test system of test [14] is HL-60.
The subject of test [15] is HT-29.
Test [16] relates to SF-539.
The test system of test [17] is U-251.
The subject of test [18] is CAKI-1.
Test [19] deals with Hs-578T.
Test [20] concerns SK-OV-3.

Consider `Cc1ccc(-c2nc(-c3cnccn3)n(C3OC(CO)C(O)C(O)C3O)n2)cc1` (stereo unspecified), for which the GI50 in [1], in test [2], in [3], in test [4], in test [5] and in [6] was > 100 µM (inactive) each time. Further, the GI50 in [7], in [8], in test [9], in test [10], in test [11] and in [12] was > 100 µM (inactive) each time. Moreover, the GI50 in test [13], in [14], in [15], in test [16] and in [17] was > 100 µM (inactive) in each case.
In the case of `C1CCCN(NC2=NCCO2)CC1`, the GI50 in test [1], in test [2], in [4], in [5], in [6] and in [8] was > 100 µM (inactive) each time. The GI50 in test [9], in [10], in test [11], in test [12], in [13] and in test [14] was > 100 µM (inactive) in each case. In addition, the GI50 in test [15], in test [16], in [18], in test [19] and in test [17] was > 100 µM (inactive) throughout.
Take `CC(=O)OCC1OC(Sc2nc(-c3ccc(C)cc3)c(C#N)c(=O)n2C2OC(COC(C)=O)C(OC(C)=O)C(OC(C)=O)C2OC(C)=O)C(OC(C)=O)C(OC(C)=O)C1OC(C)=O` (stereo unspecified): the GI50 in test [1], in [2], in [4], in [5], in [6] and in test [7] was > 100 µM (inactive) each time. The GI50 in test [9], in test [10], in test [11], in test [12], in [13] and in test [15] was > 100 µM (inactive) each time. Besides, the GI50 in test [16], in test [18], in [20], in test [19] and in [17] was > 100 µM (inactive) each time.
`O=C(/C=C/c1cccs1)c1ccc([N+](=O)[O-])cc1`: the GI50 in [1] was > 100 µM (inactive); in [2] it was > 100 µM (inactive); in [4] it was 26.9 µM (inactive); in test [5], > 100 µM (inactive); in test [7], > 100 µM (inactive); in [8], > 100 µM (inactive). Further, the GI50 was > 100 µM (inactive) in [9]; 58.1 µM (inactive) in test [10]; 77.8 µM (inactive) in test [12]; 83.2 µM (inactive) in [14]; > 100 µM (inactive) in [15]; > 100 µM (inactive) in test [16]. Moreover, the GI50 in test [18] is > 100 µM (inactive); in [20] it was > 100 µM (inactive); in test [19], 65.5 µM (inactive); in test [17] it was > 100 µM (inactive).
Turning to `C#CCN(CC#C)C(=O)C(=O)c1c[nH]c2ccc(OC)cc12`, the GI50 in [2] is 19.5 µM (inactive); in test [3] it was 14.2 µM (inactive); in [4], 8.11 µM (inactive); in [5], 33 µM (inactive); in test [6] it was 16.3 µM (inactive); in test [7], 29.5 µM (inactive). The GI50 in [8] was 18.5 µM (inactive); in test [9], 25.7 µM (inactive); in test [10], 17.5 µM (inactive); in test [12], 20.2 µM (inactive); in [14] it was 3.99 µM (inactive); in [15], 12.5 µM (inactive). The GI50 is 14 µM (inactive) in test [16], 17.8 µM (inactive) in test [20], 16.1 µM (inactive) in test [19] and 14.4 µM (inactive) in [17].
With `O=[PH]1c2ccccc2Nc2ccccc21`, the GI50 in test [1] is 47.1 µM (inactive); in test [2], > 100 µM (inactive); in test [3], > 100 µM (inactive); in test [5] it was > 100 µM (inactive); in test [6], > 100 µM (inactive); in test [7], > 100 µM (inactive). Moreover, the GI50 in test [8] is > 100 µM (inactive); in [9] it was > 100 µM (inactive); in test [10], > 100 µM (inactive); in test [11], 74.3 µM (inactive); in [12], > 100 µM (inactive); in [13], 52.6 µM (inactive). For the same compound, the GI50 in test [14] was 75.7 µM (inactive); in [15], 51.6 µM (inactive); in test [16] it was > 100 µM (inactive); in test [18], > 100 µM (inactive); in test [20], > 100 µM (inactive); in test [17] it was > 100 µM (inactive).
Consider `COc1ccc2c3c([nH]c2c1CC=C(C)C)C(=O)C=C(C)C3=O`, for which the GI50 is > 25 µM (inactive) in [2]; > 25 µM (inactive) in [3]; > 25 µM (inactive) in test [4]; > 25 µM (inactive) in test [5]; > 25 µM (inactive) in [6]; 12.3 µM (inactive) in test [7]. The GI50 was > 25 µM (inactive) in test [8]; > 25 µM (inactive) in [9]; 16.2 µM (inactive) in [10]; 11.8 µM (inactive) in test [11]; 14.4 µM (inactive) in test [12]; > 25 µM (inactive) in test [13]. The GI50 in [14], in [15], in test [16], in [18], in test [20] and in test [17] was > 25 µM (inactive) each time.
With `Cc1cc(C(C)C)cc(=O)c(O)c1`, the GI50 in test [2], in [3], in test [4], in [5], in test [6] and in test [7] was > 100 µM (inactive) throughout. Further, the GI50 in [8], in test [9], in test [10], in test [11], in test [12] and in test [13] was > 100 µM (inactive) in each case. The GI50 in test [14], in test [15], in [16], in [18], in [20] and in [17] was > 100 µM (inactive) in each case.
For `O=c1c(Cl)c(Cl)cnn1CCCl`, the GI50 in test [2] was 3.4 µM (inactive); in test [3] it was 1.93 µM (inactive); in test [4], 5.75 µM (inactive); in test [5], 1.95 µM (inactive); in test [6], 2.09 µM (inactive); in test [7], 3.83 µM (inactive). The GI50 is 2.67 µM (inactive) in [8]; 17.9 µM (inactive) in [9]; 5.48 µM (inactive) in test [10]; 0.558 µM (active) in [11]; 11.1 µM (inactive) in test [12]; 3.47 µM (inactive) in [13]. The GI50 is 2.19 µM (inactive) in test [14]; 2.81 µM (inactive) in [15]; 14.1 µM (inactive) in [16]; 2.27 µM (inactive) in test [18]; 3.56 µM (inactive) in [20]; 3.25 µM (inactive) in test [19]. Also, the GI50 in test [17] is 5.9 µM (inactive).
Consider `O=C(NO)C(=O)Nc1cc(Cl)ccc1Cl`, for which the GI50 in test [2] is > 100 µM (inactive); in [3] it was 69.5 µM (inactive); in [4], 22 µM (inactive); in test [5] it was 20.1 µM (inactive); in [6] it was > 100 µM (inactive); in [7] it was > 100 µM (inactive). Further, the GI50 in test [8] is > 100 µM (inactive); in test [9], > 100 µM (inactive); in test [10] it was > 100 µM (inactive); in [11] it was 23.9 µM (inactive); in test [12], > 100 µM (inactive); in test [13], 90.6 µM (inactive). For the same compound, the GI50 in test [14] was > 100 µM (inactive); in test [15], > 100 µM (inactive); in test [16] it was > 100 µM (inactive); in test [18], 23.2 µM (inactive); in test [20], > 100 µM (inactive); in test [17], > 100 µM (inactive).
As for `O=C1CCC(=O)N1n1c(Cc2ccccc2)n[nH]c1=O`, the GI50 in test [1], in [2], in test [4], in test [5], in test [6] and in [7] was > 100 µM (inactive) each time. Besides, the GI50 was > 100 µM (inactive) in test [8]; > 100 µM (inactive) in test [9]; > 100 µM (inactive) in test [10]; > 100 µM (inactive) in test [11]; 5.26 µM (inactive) in test [12]; > 100 µM (inactive) in test [13]. The GI50 in test [15], in [18], in test [20], in [19] and in [17] was > 100 µM (inactive) throughout.
